Measured values reported in ChEMBL document CHEMBL5729393, “Inhibitors of blood coagulation factor XIII” (2022).
Where a SMILES comes first, the peptide text is derived from it. [ ]: non-standard residue; d: D form. The star is where a group is joined. ξ: configuration not given here. Nle(5E-ene,6-CO2Et) = CCOC(=O)/C=C/CC[C@H](N)C(=O)O; Oic(3aξ,7aξ) = O=C(O)[C@@H]1CC2CCCCC2N1; Cbz = O=C(OCc1ccccc1)*

Target: T1, Coagulation factor XIII A chain (Homo sapiens, UniProt P00488)
T1 sequence (P00488 whole entry): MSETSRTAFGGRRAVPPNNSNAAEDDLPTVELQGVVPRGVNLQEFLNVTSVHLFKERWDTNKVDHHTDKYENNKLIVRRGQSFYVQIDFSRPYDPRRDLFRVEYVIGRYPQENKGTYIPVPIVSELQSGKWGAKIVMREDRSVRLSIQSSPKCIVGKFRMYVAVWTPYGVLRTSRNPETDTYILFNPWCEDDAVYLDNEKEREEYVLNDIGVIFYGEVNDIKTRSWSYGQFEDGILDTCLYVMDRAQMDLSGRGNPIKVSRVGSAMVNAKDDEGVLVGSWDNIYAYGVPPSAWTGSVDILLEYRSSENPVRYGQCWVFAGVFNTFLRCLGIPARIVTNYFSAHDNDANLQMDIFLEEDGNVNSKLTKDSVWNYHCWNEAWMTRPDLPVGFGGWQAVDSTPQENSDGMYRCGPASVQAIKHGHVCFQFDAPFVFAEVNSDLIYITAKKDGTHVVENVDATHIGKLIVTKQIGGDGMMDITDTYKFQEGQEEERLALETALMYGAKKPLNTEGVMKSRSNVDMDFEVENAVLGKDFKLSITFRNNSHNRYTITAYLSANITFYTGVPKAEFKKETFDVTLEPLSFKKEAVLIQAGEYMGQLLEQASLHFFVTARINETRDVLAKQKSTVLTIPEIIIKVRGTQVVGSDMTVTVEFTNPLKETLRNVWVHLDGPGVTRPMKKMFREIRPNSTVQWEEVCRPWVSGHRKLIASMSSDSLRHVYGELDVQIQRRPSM
Assay: All measurements were performed in triplicate.

## CCOC(=O)/C=C/CC[C@H](NC(=O)OCc1ccccc1)C(=O)N[C@H](C(=O)N1C2CCCCC2C[C@H]1C(=O)N[C@@H](CC(C)C)C(N)=O)C(C)C (stereo partly drawn) (Cbz-[Nle(5E-ene,6-CO2Et)]V[Oic(3aξ,7aξ)]L-NH2)
  IC50: > 10 µM
